Here are results for three compounds from patent publication US20200016159A1, “N3-CYCLICALLY SUBSTITUTED THIENOURACILS AND USE THEREOF” (Bayer Aktiengesellschaft, priority 2016, published 2020).

In one data set the test system is colon cancer cell lines. The settings on record: inhibition of the A2b receptor-mediated adenosine signalling pathway; cited from earlier work.
Data set [1] addresses T1, human adenosine A1 receptor (Homo sapiens, UniProt P30542).
T1 construct: expressed in transfected cells; host or cells: CHO
T1 sequence (P30542 1-326): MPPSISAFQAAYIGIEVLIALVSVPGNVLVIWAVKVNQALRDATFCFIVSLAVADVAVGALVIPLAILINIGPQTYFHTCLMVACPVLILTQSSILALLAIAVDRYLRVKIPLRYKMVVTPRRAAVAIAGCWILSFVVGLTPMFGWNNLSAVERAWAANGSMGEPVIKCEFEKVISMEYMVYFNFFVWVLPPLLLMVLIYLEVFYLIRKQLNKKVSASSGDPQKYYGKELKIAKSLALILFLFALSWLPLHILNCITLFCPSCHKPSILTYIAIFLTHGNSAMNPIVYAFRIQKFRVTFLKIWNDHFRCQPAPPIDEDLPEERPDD
The data set is described as follows: Adenosine receptor radioligand binding assay, A1 receptor ([3H]-DPCPX, CHO membranes). The settings on record: membrane preparations of CHO cells, radioligand [3H]-DPCPX. The method, then: (§1) The binding properties of the test compounds on adenosine receptors were determined in binding studies with radioligands. For this purpose, membrane preparations of the human adenosine receptor subtypes were produced from cell lines having recombinant receptor expression (CHO cells for the A1 receptor, HEK293 cells for the A2a, A2b and A3 receptors). The following radioligands were used in the experiments: [^3H]-DPCPX for the A1 receptor, [^3H]-CGS 21680 for the A2a receptor, [^3H]-CPX for the A2b receptor and [^125I]-AB-MECA for the A3 receptor. The test substances were each tested in 8 different concentrations and 2 repeat tests per concentration. The displacement of the particular radioligand by the test compound was expressed as percentage inhibition of the specific binding of the controls.
(§2) The IC50 values (concentration which brings about half-maximum inhibition of the specific binding of the controls) and the Hill coefficients (nH) were determined by a non-linear regression analysis, using the competition curves obtained from the mean values of the repeat tests and conducting a curve fit according to the Hill equation:
(§3) (Y=specific binding; A=left-hand asymptote of the curve; D=right-hand asymptote of the curve; C=substance concentration; C50=IC50; nH=rise factor).
(§4) The inhibition constant (Ki) was calculated by the Cheng-Prusoff equation:
(§5) (L=concentration of the radioligand in the assay; KD=receptor affinity of the radioligand for the receptor, determined with a Scatchard plot).
(§6) [Literature: A1 receptor: Townsend-Nicholson, A. und Schofield, P. R., J. Biol. Chem. 269: 2373-2376 (1994); A2a receptor: Luthin, D. R. et al., Mol. Pharmacol. 47: 307-313 (1995); A2b receptor: Stehle, J. H. et al., Mol. Endocrinol. 6: 384-393 (1992) and Linden et al., Mol. Pharmacol. 56: 705-713 (1999); A3 receptor: Salvatore, C. A. et al., Proc. Natl. Acad. Sci. U.S.A. 90: 10365-10369 (1993) and Jacobson, K. A. et al., Neuropharmacology 36: 1157-1165 (1997)].
(§7) Table 2 below lists the K1 values thus determined from these binding assays for representative working examples (in some cases as means of a plurality of independent individual determinations and rounded to two significant figures; it may also be the case here that various independent preparations of the respective working example have been used): […]

The target in data set [2] is T2, human adenosine A2a receptor (Homo sapiens, UniProt P29274).
T2 construct: expressed in transfected cells; host or cells: HEK293
T2 sequence (P29274 whole entry): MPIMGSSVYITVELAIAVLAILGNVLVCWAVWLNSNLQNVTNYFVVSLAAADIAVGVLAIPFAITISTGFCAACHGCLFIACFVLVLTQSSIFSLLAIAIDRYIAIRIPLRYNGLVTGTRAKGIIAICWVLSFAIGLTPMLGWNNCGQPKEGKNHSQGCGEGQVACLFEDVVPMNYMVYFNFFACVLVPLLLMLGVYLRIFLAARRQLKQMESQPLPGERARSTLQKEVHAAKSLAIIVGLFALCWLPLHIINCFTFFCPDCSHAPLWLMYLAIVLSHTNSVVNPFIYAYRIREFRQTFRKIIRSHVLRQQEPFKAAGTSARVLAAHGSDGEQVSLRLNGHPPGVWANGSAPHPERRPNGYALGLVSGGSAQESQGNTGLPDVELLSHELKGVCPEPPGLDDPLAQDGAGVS
The data set is described as follows: Adenosine receptor radioligand binding assay, A2a receptor ([3H]-CGS 21680, HEK293 membranes). Particulars: membrane preparations of HEK293 cells, radioligand [3H]-CGS 21680. The method, then: as §1, §2, §3, §4, §5, §6, §7

The target of data set [3] is T3, human adenosine A3 receptor (Homo sapiens, UniProt P0DMS8).
T3 construct: expressed in transfected cells; host or cells: HEK293
T3 sequence (P0DMS8 1-318): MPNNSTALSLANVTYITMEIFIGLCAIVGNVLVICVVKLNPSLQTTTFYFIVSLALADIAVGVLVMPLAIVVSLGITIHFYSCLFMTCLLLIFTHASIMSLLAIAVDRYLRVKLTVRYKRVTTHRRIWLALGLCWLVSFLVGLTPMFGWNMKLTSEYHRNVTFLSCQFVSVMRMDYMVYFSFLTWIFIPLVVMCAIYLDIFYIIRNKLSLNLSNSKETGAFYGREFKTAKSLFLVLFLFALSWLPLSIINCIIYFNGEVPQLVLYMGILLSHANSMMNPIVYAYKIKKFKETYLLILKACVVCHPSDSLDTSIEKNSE
The data set is described as follows: Adenosine receptor radioligand binding assay, A3 receptor ([125I]-AB-MECA, HEK293 membranes). The settings on record: membrane preparations of HEK293 cells, radioligand [125I]-AB-MECA. The method, then: as §1, §2, §3, §4, §5, §6, §7

Data set [4] concerns IL-6 release by LL29 fibroblasts. The data set is described as follows: NECA-induced IL-6 release by LL29 fibroblasts. The class given is cell-based. The settings on record: Homo sapiens, Fibroblast; LL29 cells stimulated with NECA (10 μM), 24 hours, IL-6 ELISA of supernatant. The method, then: Stimulation of fibroblasts with adenosine or the adenosine analog 5′-N-ethylcarboxamidoadenosine (NECA) leads to release of the pro-inflammatory and pro-fibrotic cytokine IL-6 which can be prevented by inhibition of the A2b receptor.
Accordingly, confluent cells of the human fibroblast cell line LL29 were treated with the test substances and stimulated with NECA (10 μM). After an incubation time of 24 hours, the cell supernatant is removed and human IL-6 in the cell supernatant is determined by ELISA (Quantikine® IL6 ELISA, R&D Systems, Minneapolis, USA).
Table 3 below lists the IC50 values obtained in this way for inhibition of IL-6 release for representative working examples (in some cases as means of a plurality of independent individual determinations and rounded to two significant figures; it may also be the case here that various independent preparations of the respective working example have been used): […]
Background: In an ELISA, binding on a coated surface is turned into a signal by an enzyme label.

Data set [5] addresses T4, human adenosine A2b receptor (Homo sapiens, UniProt P29275).
T4 sequence (P29275 1-332): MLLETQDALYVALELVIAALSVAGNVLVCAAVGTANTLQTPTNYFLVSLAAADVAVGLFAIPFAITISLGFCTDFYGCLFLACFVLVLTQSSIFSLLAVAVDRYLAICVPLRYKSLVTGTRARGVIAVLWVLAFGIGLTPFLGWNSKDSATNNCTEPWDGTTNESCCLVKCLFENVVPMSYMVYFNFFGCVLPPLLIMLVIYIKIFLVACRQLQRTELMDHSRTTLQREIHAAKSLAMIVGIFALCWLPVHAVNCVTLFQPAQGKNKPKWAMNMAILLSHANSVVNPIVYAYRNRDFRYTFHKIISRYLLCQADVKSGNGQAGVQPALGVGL
The data set is described as follows: Adenosine receptor radioligand binding assay, A2b receptor ([3H]-CPX, HEK293 membranes). Further details: expressed in transfected cells. The settings on record: membrane preparations of HEK293 cells, radioligand [3H]-CPX. The method, then: as §1, §2, §3, §4, §5, §6, §7

For data set [6], the target named is T4, human adenosine A2b receptor. The data set is described as follows: Cellular in vitro reporter gene test for A2b receptor activity (antagonism of NECA). The class given is cell-based. Further details: expressed in transfected cells; host or cells: CHO-K1 (Chinese hamster ovary) with CRE-luciferase reporter. The settings on record: recombinant CHO-K1 cells, CRE-luciferase reporter, co-incubation with EC50 concentration of NECA, 3 hours. In short, it runs like this: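 CHO-K1 cells expressing recombinant human A2b receptor plus a CRE-driven firefly luciferase reporter. Compounds co-incubated with NECA at its same-day EC50 concentration; luminescence read 3 hours after NECA addition. IC50 values, sometimes means of several determinations rounded to two significant figures.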
In general terms: A reporter such as luciferase makes a cellular process visible.

Data set [7] has as its system prostate cancer cell lines. The settings on record: cited from earlier work.
The test system of a further data set is melanoma animal models. Particulars: cited from earlier work.

As for `CCCn1c(=O)c2[nH]c(-c3ccc(OCC(=O)Nc4ccc(C#N)cc4)cc3)nc2n(CCC)c1=O` [MRS1754], in the data set on colon cancer cell lines, the “growth of colon cancer cell lines” value is “reduced growth”.

In turn, `Cc1c(Cn2nc[nH]c2=O)sc2c1c(=O)n(C1CC1)c(=O)n2CCOC(F)(F)F` [Example 36, 3-Cyclopropyl-5-methyl-6-[(5-oxo-4,5-dihydro-1H-1,2,4-triazol-1-yl)methyl]-1-[2-(trifluoromethoxy)ethyl]thieno[2,3-d]pyrimidine-2,4(1H,3H)-dione] displayed a melting point of 199 °C. In [1], the inhibition constant Ki came to 2600 nM. The compound further returned an inhibitory constant (Ki) in data set [2] of 950 nM. Besides, the Ki in data set [3] was over 50000 nM. The compound further yielded a half-inhibitory concentration (IC50) in [4] of 6.1 nM. The same compound displayed a Ki in [5] of 2.6 nM. Also, the IC50 in [6] was 4.4 nM.

`CCCn1c(=O)[nH]c2nc(-c3ccc(S(=O)(=O)N4CCN(c5ccc(Cl)cc5)CC4)cc3)[nH]c2c1=O` [PSB603]: the “growth of several prostate cancer cell lines” value in [7] is given as “reduces the growth”. Also, in the data set with melanoma animal models, the “tumour growth and metastasis” value is “reduction in tumour growth and metastasis”.

One may read the Ki as a dissociation constant, usually derived from enzyme kinetics or from competition with a known ligand. Read a high Ki as a looser hold on the target. A word on the IC50: it is the point on the concentration scale where inhibition reaches its midpoint. The melting point is the temperature of the solid-liquid transition.
